Patent US9518976B2, “Methods for identifying or assaying for agents that increase beta-cell proliferation, insulin secretion, insulin sensitivity, glucose tolerance and decrease fat mass” (The Trustees of Columbia University in The City of New York, priority 2006, dated 2016)

How the values were obtained:
WT adipocytes = experiment: Adiponectin expression in WT adipocytes cocultured with warfarin-treated osteoblasts; format: cell-based, mouse; conditions: adipocytes cocultured with warfarin-treated vs vehicle-treated osteoblasts (FIG. 7J)
Text: FIG. 7. Esp−/− Mice Are a Model of Increased Osteocalcin Bioactivity. (A-G) Comparison between 6-week-old WT, Esp−/, Ocn+/−, and Esp−/−; Ocn+/− mice. (A) Blood glucose levels. (B) Serum insulin levels. (C) Serum adiponectin levels. (D) GTT. (E) ITT. (F) GSIS test. (G) Quantification of the number of Ki67-immunoreactive cells in pancreatic islets. […] (J) Expression of Adiponectin in WT adipocytes cocultured with osteoblasts treated with warfarin or vehicle. (K) Expression of Adiponectin in WT adipocytes cultured in presence of vehicle or of 1 ng/ml of commercially available carboxylated osteocalcin (Immunotopics) or bacterially produced uncarboxylated osteocalcin. (L) Expression of Insulin and Cyclin D1 in WT islets cultured in presence of 0.3 ng/ml of bacterially produced uncarboxylated osteocalcin or vehicle. (M) Metabolic parameters and total serum osteocalcin levels in control and obese patients. (N-O) Quantification of carboxylated osteocalcin (HA-bound osteocalcin) in control and obese patients. In (A)-(C) and (G)-(L): *p<0.05 versus WT (Student's t test); in (D)-(F), °p<0.05 versus WT and *p % 0.001 versus WT (ANOVA followed by post hoc analysis).
Primary osteoblasts were prepared from calvaria of 5 day-old pups as previously described (Ducy et al., 2000a) and were cultured in αMEM/10% FBS in the presence of 100 μg/ml ascorbic acid and 5 mM β-glycerophosphate for 5 days. […]

osteoblasts = experiment: Osteocalcin/hydroxyapatite (HA) binding assay on medium of warfarin-treated osteoblasts; format: cell-based, mouse
Experimental: Primary osteoblasts were prepared from calvaria of 5 day-old pups as previously described (Ducy et al., 2000a) and were cultured in αMEM/10% FBS in the presence of 100 μg/ml ascorbic acid and 5 mM β-glycerophosphate for 5 days. Skin fibroblasts were isolated by collagenase digestion (0.5 mg/ml) and were cultured in […]MEM/10% FBS. Twenty-four hours before addition of primary islets (or adipocytes), osteoblasts (or fibroblasts) were placed in αMEM/1% FBS. […] After 4 h of co-culture, either in the presence or absence of (1 μm) culture inserts (Falcon) islets (or adipocytes) were collected for RNA isolation using TRIZOL (Invitrogen).
Sera from 1 month-old mice, obese patients or supernatant from warfarin-treated osteoblast cultures were added to HA slurry to achieve a final concentration of 25 mg slurry/ml. After 15 min (mouse sera, supernatant) or 30 min (human sera), HA beads were pelleted by centrifugation and HA-bound osteocalcin was eluted with 0.5M sodium phosphate buffer, pH 8.0. Osteocalcin present in eluates and initial samples was measured by IRMA. Values represent percentage of HA-bound osteocalcin over initial osteocalcin content. Hauschka, P. V., et al., Physiol Review 69, 990-1047 (1989).
To determine whether this was the case, two additional experiments were performed. […] Second, carboxylated osteocalcin and bacterially produced mouse osteocalcin, which is not carboxylated, were used in cell-based assays. […] Lastly, we studied human obese patients that are hyperinsulinemic but not diabetic (FIG. 7M).

Structure (SMILES): CC(=O)CC(c1ccccc1)c1c(O)c2ccccc2oc1=O (stereo not shown) [warfarin]
- adiponectin expression induced by treated osteoblasts (WT adipocytes): significantly higher extent
- percentage of osteocalcin bound to HA (osteoblasts; conditioned medium of warfarin-treated osteoblasts vs vehicle, 50 μM, 48 h, 15 min HA incubation): marked decrease
- osteocalcin secreted by osteoblasts (osteoblasts; warfarin-treated osteoblasts (vehicle 10 ng/ml)): 2 ng/mL
- levels of undercarboxylated osteocalcin produced by osteoblasts (osteoblasts; warfarin-treated vs vehicle-treated osteoblasts (FIG. 7I)): elevated
